According to patent US6949521B2, “Therapeutic azide compounds” (priority 1995, dated 2005):
Where two headings read alike, the source gives them in different places. Each block holds one compound with its values, some of them ahead of it.

Columns and labels:
[1] = Pharmacokinetics in mouse serum after iv and oral administration of cordycepin or its azide derivative; format: in vivo, mice
Experimental: 100 mg/kg of cordycepin or the azide derivative of cordycepin were administered intravenously (iv) (dissolved in methylsulfoxide (20 mg/ml)), or orally (dissolved in 30% glycerin (8.3 mg/ml)). Three animals for each time point were sacrificed at 0.08, 0.25, 0.5, 0.75, 1.0, 1.5, 2.0, 3.0 and 4.0 h after drug administration. Blood (serum) was collected and immediately analyzed.
An AzdU was used as an internal standard (20 μg/ml) to measure the azide derivative concentrations in serum. Tubes were vortexed and centrifuged at 9,000 rpm for 5 min.
To neutralize, perchloric acid supernatant was transferred into a clean tube with 160 μl of concentrated sodium tetraborate solution (pH 6.5). Tubes were vortexed again and centrifuged at 12,000 rpm for 15 min. Samples were held at 0° C. during analysis.
Chromatographic separations were carried out on a Shimadzy gradient HPLC system (Shimadzy Corporation, Kyoto, Japan), which was equipped with a Model SPD-10A UV detector, a Model L-10AS pump, a Model SIL-10A autosampler, a controller Model SCL-10A and a Model CR-501 reporting integrator. Chromatography was performed on an Alltech Hypersil ODS (5 μm particle size, 4.6×250 mm, Ailtech Associates, Deerfield, Ill.) to determine cordycepin and its metabolite. The azide derivative of cordycepin was analyzed on an Alltech Hypersil BDS column (5 μm particle size, 4.6×250 mm, Alltech Associates, Deerfield, Ill.).
The mobile phase for cordycepin and metabolite analysis in serum consisted of 3% acetonitrile in 20 mM sodium borate and 10 mM EDTA (pH 6.5) at a flow of 1.4 ml/min and the mobile phase for azide derivative analysis in serum consisted of 3% acetonitrile 20 mM in potassium phosphate (pH 4.0) at a flow of 1.5 ml/min. The UV detector was set at 258 nm for analysis of cordycepin and metabolite and at 290 nm for the azide derivative.
The limit of quantitation was 0.05 μg/ml for cordycepin and metabolite and 0.5 μg/ml for the azide derivative.
Plasma concentration versus time data for nucleosides were analyzed by noncompartment methods. […] Prog. Biomed. (1983) 16:203-216.
Absolute bioavailability (F) of the azide derivative was calculated from AUCor/AUCiv, where AUC values were determined from serum nucleoside concentration versus time data.
Relative exposures for cordycepin and its metabolite in serum after or versus iv administration of the derivative were calculated from AUCor/AUCiv.

in vitro = details: female, NIH Swiss, mouse, liver homogenate
Experimental: (§4) All the solvents were of HPLC grade. Chromatography was performed on an Altech Hypersil ODS C18 (5 μm particle size, 4.5×150 mm, Altech Associates, Deerfield, Ill.).
(§5) In vitro metabolism study. Female NIH Swiss mice (Harland Sprague-Dawley, Indianapolis, Ind.) were sacrificed and serum, liver and brain tissues were collected before each experiment. Serum was collected from several animals. The brain and liver were washed in normal saline at 4° C., wiped and then weighed. […] Samples and blanks of volume 400 μL were collected at 0, 5, 15, and 30 minutes and at 1, 2, 3, 4 and 5 hours.
(§6) To measure the analyte concentrations in serum, liver or brain homogenate, 400 μL of sample was mixed with 50 μL of internal standard (AzdU, 5 μg/mL) and 0.7 mL of acetonitrile. After centrifugation, the supernatant was decanted to another tube and treated with anhydrous Na2SO4, then vortexed for one minute and centrifuged again. The organic layer was separated and evaporated under nitrogen stream at room temperature. The residue was reconstituted in mobile phase A and filtered through MPS-I micropartition system (3KD membranes (Amicon Inc., Beverly, Mass.) by centrifugation for 50 minutes at 2000 rpm to further clean-up the samples. 100 μL of filtrate was injected for analysis.

[2] = In vitro metabolism study of 6-AAP and ara-A in mouse liver homogenate, serum and brain homogenate
Experimental: as §4, §5, §6

[3] = In vitro stability in PBS, mouse serum, brain and liver homogenate (FAAddP, FMAddA); format: in vitro ADME; details: for stability in phosphate buffer saline: PBS pH 7.4, 37° C.; for half-life at 70 μM: mouse
Experimental: In vitro stability in serum, brain and liver homogenate. Liver and brain homogenate were prepared in a 1: 1 (g:mL) ratio with isotonic 0.05 M phosphate buffer, pH 7.4. FAAddP (70 μM) or FMAddA (50 μM) were added to the mouse serum, the brain homogenate or the liver homogenate and incubated in a shaker water bath at 37° C. Aliquots of 100 μL were removed at time zero and at selected times for up to 6 hours. Concentrations of the compounds were determined by HPLC.
(§1) Analytical Methodology. […] The brain or liver tissue were homogenized in a 1:1 (g:mL) ratio with ice cold isotonic 0.05 M phosphate buffer, pH 7.4. […] Acetonitrile (600 μL) containing 0.1% acetic acid was added while vortexing to precipitate proteins. The tubes were centrifuged at 3,000 rpm for five minutes and the supernatant was transferred to a clean tube. Supernatant was evaporated to dryness under a stream of nitrogen gas at room temperature. The residual film was reconstituted in 110 μL of mobile phase and 50 μL was injected onto the HPLC.
(§2) Chromatographic separations were performed using a Hypersil ODS column 150×4.5 mm, 5 μm particle size (Alltech Associates, Deerfield, Ill.) preceded by a guard column packed with 30-40 μm pellicular Perisorb RP-18. Mobile phase flow rate was 2 mL/min. For the analysis of FAAddP and 2′-F-ara-ddA, the mobile phase consisted of 7% (v/v) acetonitrile in 80 mM sodium acetate, pH 5.0. […] Eluants were monitored at a UV wavelength of 260 nm.
(§3) Nucleoside standards ranging from 0.04 μg/mL to 100 μg/mL, prepared in blank PBS, serum, brain homogenate and liver homogenate were treated the same as unknown samples. Samples with nucleoside concentrations greater than 100 μg/mL were diluted with the appropriate blank matrix.
Data analysis in vitro studies.

[4] = biological target: T1, adenosine deaminase (type VII from calf intestinal mucosa) (Bos taurus, UniProt P56658); assay: Deamination by adenosine deaminase (2′-fluoronucleosides); format: biochemical
T1 construct: type VII from calf intestinal mucosa; purchased Sigma Chemical Co., St. Louis, Mo. type VII; host or cells: calf intestinal mucosa
T1 sequence (P56658 1-363): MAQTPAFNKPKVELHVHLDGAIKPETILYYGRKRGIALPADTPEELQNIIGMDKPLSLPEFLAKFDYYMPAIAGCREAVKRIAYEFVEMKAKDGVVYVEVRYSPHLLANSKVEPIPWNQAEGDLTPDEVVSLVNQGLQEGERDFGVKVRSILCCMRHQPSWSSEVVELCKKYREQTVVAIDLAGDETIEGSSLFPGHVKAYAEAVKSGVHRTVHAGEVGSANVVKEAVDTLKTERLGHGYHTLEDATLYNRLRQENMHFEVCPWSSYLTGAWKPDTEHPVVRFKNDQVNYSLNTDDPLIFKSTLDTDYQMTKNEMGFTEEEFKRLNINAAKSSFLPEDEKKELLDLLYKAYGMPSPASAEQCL
Experimental: Deamination of 2′-F-ara-ddA and FMAddA by adenosine deaminase. Samples (1.5 mL) of 2′-F-ara-ddA (80 μM) or FMAddA (50 μM) were prepared in 0.05 M isotonic phosphate buffer, pH 7.4, and placed into a shaking water bath at 37° C. The reaction was initiated by the addition of 15 μL of adenosine deaminase (type VII from calf intestinal mucosa, Sigma Chemical Co., St. Louis, Mo.). The final activity in the incubation media was 0.05 U/mL for 2′-F-ara-ddA and 1.0 U/mL for FMAddA. At specified time intervals, aliquots of 100 μL were withdrawn for the determination of 2′-F-ara-ddA and 2′-F-ara-ddI or FMAddA and 2′-F-ara-ddI concentrations.
Mobile phase flow rate was 2 mL/min.

in vivo = details: mouse, in vivo; for half-life: t½
Source text: Animal studies. […] Animal studies were approved by the University of Georgia Animal Care and Use Committee and conducted in accordance with guidelines established by the Animal Welfare Act and the National Institutes of Health Guide for the Care and Use of Laboratory Animals. […] Animals were acclimatized to this environment for one week prior to the experiments.
At selected time intervals, mice (three animals per each time point) were anesthetized with diethyl ether and sacrificed by exsanguination via left ventricular heart puncture. Serum was harvested from blood collected. The brain was excised, rinsed with normal saline, blotted dry and weighed.
as §1, §2, §3
Data analysis in vivo studies. Nucleoside concentration as a function of time data were analyzed by a non-compartmental technique. […] Relative brain exposure (re) was calculated from AUCbrain/AUCserum.

[5] = system: microsomal fraction of the human liver homogenate; assay: Azido reduction assay
Experimental: Briefly, incubation mixtures contained either 1.5 mg of human liver fraction protein (homogenate or supernatant fractions following centrifugation) or 1.5 mg microsomal protein, 5.0 mM MgCl2, 6.0 mM NADPH and 0.4 mg/mL of 6-AAP in 0.1 M phosphate buffer saline at pH 7.4 (final volume of 0.2 mL). The reaction was initiated by adding NADPH and conducted at 37° C. for 60 minutes under nitrogen. Reactions were terminated by heating at 100° C. for 30 seconds and the proteins were removed by centrifugation at 14,000 g for six minutes. Aliquots (100 μL) were then analyzed for nucleosides by HPLC. Control incubations were performed in the absence of protein.
Inhibition of azido reduction assay: Assays were performed using 1.5 mg microsomal protein as described above following either a 45 second exposure to carbon monoxide or a 5 minute pre-incubation with 1 mM metyrapone prior to the addition of NADPH.

[6] = female, NIH Swiss, mouse, in vivo, iv, 100 mg/kg
[7] = female, NIH Swiss, mouse, in vivo, po, 100 mg/kg
[8] = 6-AAP incubated in mouse liver homogenate
[9] = female, NIH-Swiss, iv, 55 mg/kg
[10] = female, NIH-Swiss, po, 55 mg/kg
[11] = mouse serum, after iv azide derivative 100 mg/kg
[12] = mouse serum, after oral azide derivative 100 mg/kg

Compound: O=c1[nH]cnc2c1ncn2[C@@H]1O[C@H](CO)[C@@H](O)[C@@H]1O [Ara-H, 9-(β-D-arabinofuranosyl)hypoxanthine]
half-life at 100 μg/mL (in vitro): 134 min
Kel [2, 8]: 0.26 h⁻¹
T1/2 [2, 8]: 147 min
Kel ([2]; Ara-A incubated in mouse liver homogenate): 0.31 h⁻¹

Compound: Nc1ncnc2c1ncn2[C@@H]1O[C@H](CO)C[C@H]1O [Cordycepin, 3′-deoxyadenosine, reference compound]
AUC(0-inf) ([1]; female, NIH Swiss, in vivo, mouse serum, after iv azide derivative 100 mg/kg, read-out: AUC0→∞ iv): 2170 ± 350 ng·h/mL
Cmax ([1]; female, NIH Swiss, in vivo, mouse serum, after iv azide derivative 100 mg/kg, read-out: Cmax (maximal measured concentration) iv): 3890 ± 1720 ng/mL
half-life ([1]; female, NIH Swiss, in vivo, mouse serum, after iv azide derivative 100 mg/kg, read-out: T½ iv (converted)): 14.4 min
AUC(0-inf) ([1]; female, NIH Swiss, in vivo, mouse serum, after oral azide derivative 100 mg/kg, read-out: AUC0→∞ oral): 1630 ± 150 ng·h/mL
Cmax ([1]; female, NIH Swiss, in vivo, mouse serum, after oral azide derivative 100 mg/kg, read-out: Cmax (maximal measured concentration) oral): 1180 ± 600 ng/mL
half-life ([1]; female, NIH Swiss, in vivo, mouse serum, after oral azide derivative 100 mg/kg, read-out: T½ oral (converted)): 45.6 min
time of detection of cordycepin in serum above 0.05 μg/ml, iv ([1]; female, NIH Swiss, mouse, in vivo, iv): ≤ 1.5 h
time of detection of cordycepin in serum above 0.05 μg/ml, oral ([1]; female, NIH Swiss, mouse, in vivo, po): ≤ 3 h
detection in serum [1, 7]: Neither 3′-deoxyinosine nor cordycepin were detected
re - relative exposure: AUC ratio oral vs. intravenous (AUCor/AUCiv) ([1]; mouse serum, after azide derivative 100 mg/kg): 0.75
cordycepin in serum samples collected 10 min later ([1]; mouse, in vivo, iv, 100 mg/kg): not recovered
cordycepin in serum samples collected at 5 min ([1]; mouse, in vivo, iv, 100 mg/kg): trace amount

Compound: [N-]=[N+]=Nc1ncnc2c1ncn2[C@@H]1O[C@H](CO)C[C@H]1O [Azide Deriv., N^6-azido-β-D-3′-deoxyribofuranosyl purine]
absolute bioavailability after oral administration ([1]; mice, azide derivative): 94%
AUC0→∞ iv [1, 11]: 47200 ± 4010 ng·h/mL
Cmax (maximal measured concentration) iv [1, 11]: 143000 ± 33400 ng/mL
T½ iv [1, 11]: 21.6 min
T½ iv ([1]; mouse serum, after iv azide derivative 100 mg/kg, listed as azide derivative): 21 min
AUC0→∞ oral [1, 12]: 44500 ± 2780 ng·h/mL
Cmax (maximal measured concentration) oral [1, 12]: 48200 ± 12300 ng/mL
T½ oral [1, 12]: 31.8 min

Further lines, with some results ahead:

AUC(0-inf) [1, 6]: 3680 ± 260 ng·h/mL
half-life [1, 6]: 30 min
AUC(0-inf) [1, 7]: 5890 ± 590 ng·h/mL
half-life [1, 7]: 39 min
Compound: O=c1[nH]cnc2c1ncn2[C@@H]1O[C@H](CO)C[C@H]1O [Metabolite, 3′-deoxyinosine]
detection in serum [1, 7]: Neither 3′-deoxyinosine nor cordycepin were detected

stability in phosphate buffer saline [3]: stable
half-life in brain homogenate ([3]; mouse brain homogenate): stable
t1/2 in liver homogenate (metabolized to 2′-F-ara-ddI) ([3]; mouse liver homogenate): 546 min
degradation half-life in mouse serum ([3]; mouse serum, 37° C.): stable
t½ upon addition of adenosine deaminase to PBS ([4]; PBS + adenosine deaminase): 27.6 min
t1/2 upon addition of adenosine deaminase to brain homogenate ([4]; brain homogenate + adenosine deaminase): 222 min
intravenously administered dose of prodrug converted to 2′-F-ara-ddI (in vivo): 5.6%
Steady-state volume of distribution (in vivo; iv): 0.79 L/kg
Total clearance (in vivo; iv): 32.2 mL/min/kg
Compound: CNc1ncnc2c1ncn2[C@@H]1O[C@H](CO)C[C@@H]1F [FMAddA, N^6-methyl-2′,3′-dideoxy-2′-fluoro-β-D-arabinofuranosyladenine]
extent of conversion to 2′-F-ara-ddI upon addition of adenosine deaminase ([4]; PBS and brain homogenate + adenosine deaminase): virtually all of the prodrug was converted

stability in phosphate buffer saline [3]: stable
half-life at 70 μM ([3]; brain homogenate, pH 7.4, mouse brain homogenate, read-out: half-life in brain homogenate (converted)): 366 min
half-life at 70 μM ([3]; liver homogenate, pH 7.4, mouse liver homogenate, biphasic, after initial 45 minutes, read-out: t1/2 in liver homogenate, subsequent slower phase (converted)): 464 min
half-life at 70 μM ([3]; liver homogenate, pH 7.4, mouse liver homogenate, biphasic, initial phase, read-out: t1/2 in liver homogenate, initial 45 minutes (converted)): 28.8 min
half-life at 70 μM ([3]; mouse serum, 37° C., read-out: degradation half-life in mouse serum (converted)): 145 min
direct conversion to 2′-F-ara-ddI by adenosine deaminase ([4]; in vitro biotransformation): negligible rate
intravenously administered dose of prodrug converted to 2′-F-ara-ddI (in vivo; female, NIH-Swiss): Approximately 30%
clearance (in vivo; female, NIH-Swiss, iv): 18.7 mL/min/kg
t½ (in vivo; [9]): 13.2 min
half-life (in vivo; [9]): 13.2 min
AUC/Dose (in vivo; [10]): 0.19 μM · h/μmol/kg
bioavailability (in vivo; [10]): 19%
AUC (in vivo; female, NIH-Swiss, po, 55 mg/kg, AUC0-τ): 34.2 µM·h
half-life (in vivo; [10]): 91.8 min
Compound: [N-]=[N+]=Nc1ncnc2c1ncn2C1OC(CO)CC1F [FAAddP, 6-azido-2′,3′-dideoxy-2′-fluoro-β-D-arabinofuranosylpurine]
azido reduction (metabolites formed) [5]: metabolized to 2′-F-ara-ddA and 2′-F-ara-ddI
